In data set [1] the test system is patients with endometriosis. Particulars: for Changes in average NRS for pelvic pain (regardless of menstruation) between the pre-treatment period and the time of the final assessment during treatment: oral once a day for 12 weeks. How it is done:
Clinical Trial 1 in Patients with Endometriosis (Double-Blind Parallel-Group Comparison Study)
To 107 patients with endometriosis, Compound 2 at a dose of 50 mg (29 patients), 100 mg (26 patients) or 200 mg (28 patients) or a placebo (24 patients) was orally administered after breakfast once a day for 12 weeks. These groups are hereinafter referred to as a 50-mg administration group, a 100-mg administration group, a 200-mg administration group, and a placebo group. The administration was started from the second to fifth days of menstruation.
As evaluation scales for safety, for example, the occurrence of an adverse event, the occurrence of a side effect, and vaginal bleeding were evaluated.

Data set [2] has as its system patients with endometriosis. Particulars: for Changes in average NRS for pelvic pain (regardless of menstruation) between the pre-treatment period and the time of final assessment during the treatment period: oral once a day for 8 weeks. The method, then: Clinical Trial 2 in Patients with Endometriosis (Randomized Non Blind Parallel-Group Comparison Study)
To 21 patients with endometriosis, Compound 2 was administered orally at a dose of 75 mg (11 patients) or 150 mg (10 patients) after breakfast once a day for 8 weeks. These groups are hereinafter referred to as a 75-mg administration group and a 150-mg administration group. The administration was started from the second to fifth days of menstruation.

The conditions of data set [3]: long-term study; cited from earlier work.

Read-outs that look alike come from different tables or passages of the source.

On to “3-[2-fluoro-5-(2,3-difluoro-6-methoxybenzyloxy)-4-methoxyphenyl]-2,4-dioxo-1,2,3,4-tetrahydrothieno[3,4-d]pyrimidine-5-carboxylic acid choline salt [Compound 2]”, for which the “Percentage of patients who had menstruation during treatment (Yes)” value in data set [1] (50 mg) turned out to be 72.4%; in data set [1] (100 mg), 26.9%; in data set [1] (200 mg), 3.6%. In addition, the “Percentage of patients who had no menstruation during treatment (No)” value in data set [1] (50 mg) was 27.6%; in data set [1] (100 mg) it was 73.1%; in data set [1] (200 mg) it was 96.4%. The figures for the “Number of cases where side effects associated with hypoestrogenism (hot flashes, headache, dizziness, hyperhidrosis) were developed” value in data set [1] (50-mg administration group (29 patients)), in data set [1] (100-mg administration group (26 patients)) and in data set [1] (200-mg administration group (28 patients)) were 9, 12 and 28, respectively. Further, the “Changes in average NRS for pelvic pain (regardless of menstruation) between the pre-treatment period and the time of the final assessment during treatment” value in data set [1] (50-mg administration group) was −1.13; in data set [1] (100-mg administration group), −1.27; in data set [1] (200-mg administration group) it was −1.33. Also, the “E2 concentrations during treatment” value in data set [1] (100-mg administration group) and in data set [1] (200-mg administration group) was “lower than 20 pg/mL” each time. Besides, the “E2 secretion during treatment” value in data set [1] (all groups (50, 100, 200 mg)) is “Suppression of E2 secretion was observed”. Further, the “Improvement of average NRS for pelvic pain as compared to the placebo group” value in data set [1] (all groups (50, 100, 200 mg) vs placebo) was “Significant improvements”. Besides, the “Temporal pain, observations by others, use rate of an analgesic agent, sizes of an ovarian chocolate cyst and the uterus, as compared to the placebo group” value in data set [1] (groups administered 50, 100, 200 mg vs placebo) is “improved”. In addition, the “Occurrence of side effects associated with hypoestrogenism” value is on record as 28.2% in data set [1] (groups with E2 concentration of 20 pg/mL and/or more during treatment) and 54.8% in data set [1] (groups with E2 concentration of less than 20 pg/mL during treatment). For the same molecule, the “Changes in average NRS for pelvic pain (regardless of menstruation) between the pre-treatment period and the time of final assessment during the treatment period” value in data set [2] (75-mg administration group) is −0.94; in data set [2] (150-mg administration group) it was −1.68. In addition, the “Median E2 concentrations during treatment” value in data set [2] (75-mg administration group, week 4) was 35 pg/mL; in data set [2] (75-mg administration group, week 8) it was 24 pg/mL; in data set [2] (150-mg administration group, week 4) it was 10 pg/mL; in data set [2] (150-mg administration group, week 8), 10 pg/mL. Moreover, the “Improvement of average NRS for pelvic pain” value in data set [2] (all groups (75, 150 mg)) is “tendency of improvement”.
With `C[C@]12CCC3=C4CCC(=O)C=C4CC[C@H]3[C@@H]1CC[C@@]2(O)CC#N` [Dienogest, dienogest], in data set [3], the “Incidence of atypical genital bleeding as a side effect” value is given as 71.9%.

These data come from patent US11382914B2, “Usage and dosage of therapeutic agents for endometriosis” (KISSEI PHARMACEUTICAL CO., LTD., priority 2016, dated 2022).
